In patent US20170190671A1, “BIS(ARYL)CATECHOL DERIVATIVES AS HERBICIDES” (E I DU PONT DE NEMOURS AND COMPANY, priority 2014, published 2017):

Assays:
Assay in all cases: Test D preemergence
Type in all cases: in vivo
Conditions in all cases: scale 0 to 100
[1] = system: bluegrass (annual bluegrass, Poa annua)
Outline: (§1)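 Visual injury scored 0–100 (0 = no effect, 100 = complete control) against controls 14 to 21 days after treatment in a controlled growth environment. Compounds were applied in surfactant-containing non-phytotoxic solvent, preemergence onto silt loam-sown seeds or postemergence onto 1- to 4-leaf plants.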

[2] = system: canarygrass (Phalaris minor)
Outline: as §1

[3] = system: chamomile (scentless chamomile, Matricaria inodora)
Outline: as §1

[4] = system: chickweed (common chickweed, Stellaria media)
Outline: as §1

[5] = system: deadnettle (henbit deadnettle, Lamium amplexicaule)
Outline: as §1

[6] = system: downy bromegrass (Bromus tectorum)
Outline: as §1

[7] = system: field poppy (Papaver rhoeas)
Outline: as §1

kochia (Kochia scoparia) = system: kochia (Kochia scoparia)
Outline: as §1

[8] = system: lambsquarters (Chenopodium album)
Outline: as §1

[9] = system: oilseed rape (Brassica napus)
Outline: as §1

[10] = system: pigweed (Amaranthus retroflexus)
Outline: as §1

[11] = system: spring barley (Hordeum vulgare)
Outline: as §1

[12] = system: wild buckwheat (Polygonum convolvulus)
Outline: as §1

[13] = system: winter wheat (Triticum aestivum)
Outline: as §1

## Fc1cnc(Oc2c(F)cccc2Oc2ncc(Cl)cn2)nc1 [Compound 23]
[1]; 16 g ai/ha
  Plant response rating, Bluegrass: 20
[1]; 31 g ai/ha
  Plant response rating, Bluegrass: 65
[1]; 62 g ai/ha
  Plant response rating, Bluegrass: 80
[1]; 125 g ai/ha
  Plant response rating, Bluegrass: 100
[2]; 16 g ai/ha
  Plant response rating, Canarygrass: 60
[2]; 31 g ai/ha
  Plant response rating, Canarygrass: 65
[2]; 62 g ai/ha
  Plant response rating, Canarygrass: 80
[2]; 125 g ai/ha
  Plant response rating, Canarygrass: 85
[3]; 16 g ai/ha
  Plant response rating, Chamomile: 20
[3]; 31 g ai/ha
  Plant response rating, Chamomile: 75
[3]; 62 g ai/ha
  Plant response rating, Chamomile: 75
[3]; 125 g ai/ha
  Plant response rating, Chamomile: 100
[4]; 16 g ai/ha
  Plant response rating, Chickweed: 50
[4]; 31 g ai/ha
  Plant response rating, Chickweed: 100
[4]; 62 g ai/ha
  Plant response rating, Chickweed: 100
[4]; 125 g ai/ha
  Plant response rating, Chickweed: 100
[5]; 16 g ai/ha
  Plant response rating, Deadnettle: 15
[5]; 31 g ai/ha
  Plant response rating, Deadnettle: 65
[5]; 62 g ai/ha
  Plant response rating, Deadnettle: 80
[5]; 125 g ai/ha
  Plant response rating, Deadnettle: 95
[6]; 16 g ai/ha
  Plant response rating, Bromegrass, Downy: 5
[6]; 31 g ai/ha
  Plant response rating, Bromegrass, Downy: 25
[6]; 62 g ai/ha
  Plant response rating, Bromegrass, Downy: 35
[6]; 125 g ai/ha
  Plant response rating, Bromegrass, Downy: 70
[7]; 16 g ai/ha
  Plant response rating, Field Poppy: 65
[7]; 31 g ai/ha
  Plant response rating, Field Poppy: 80
[7]; 62 g ai/ha
  Plant response rating, Field Poppy: 90
[7]; 125 g ai/ha
  Plant response rating, Field Poppy: 98
Kochia (Kochia scoparia); 16 g ai/ha
  Plant response rating, Kochia: 15
Kochia (Kochia scoparia); 31 g ai/ha
  Plant response rating, Kochia: 60
Kochia (Kochia scoparia); 62 g ai/ha
  Plant response rating, Kochia: 60
Kochia (Kochia scoparia); 125 g ai/ha
  Plant response rating, Kochia: 100
[8]; 16 g ai/ha
  Plant response rating, Lambsquarters: 25
[8]; 31 g ai/ha
  Plant response rating, Lambsquarters: 100
[8]; 62 g ai/ha
  Plant response rating, Lambsquarters: 100
[8]; 125 g ai/ha
  Plant response rating, Lambsquarters: 100
[9]; 16 g ai/ha
  Plant response rating, Oilseed Rape: 80
[9]; 31 g ai/ha
  Plant response rating, Oilseed Rape: 85
[9]; 62 g ai/ha
  Plant response rating, Oilseed Rape: 98
[9]; 125 g ai/ha
  Plant response rating, Oilseed Rape: 100
[10]; 16 g ai/ha
  Plant response rating, Pigweed: 98
[10]; 31 g ai/ha
  Plant response rating, Pigweed: 100
[10]; 62 g ai/ha
  Plant response rating, Pigweed: 100
[10]; 125 g ai/ha
  Plant response rating, Pigweed: 100
[11]; 16 g ai/ha
  Plant response rating, Barley, Spring: 0
[11]; 31 g ai/ha
  Plant response rating, Barley, Spring: 5
[11]; 62 g ai/ha
  Plant response rating, Barley, Spring: 30
[11]; 125 g ai/ha
  Plant response rating, Barley, Spring: 75
[12]; 16 g ai/ha
  Plant response rating, Buckwheat, Wild: 40
[12]; 31 g ai/ha
  Plant response rating, Buckwheat, Wild: 50
[12]; 62 g ai/ha
  Plant response rating, Buckwheat, Wild: 100
[12]; 125 g ai/ha
  Plant response rating, Buckwheat, Wild: 100
[13]; 16 g ai/ha
  Plant response rating, Wheat, Winter: 0
[13]; 31 g ai/ha
  Plant response rating, Wheat, Winter: 5
[13]; 62 g ai/ha
  Plant response rating, Wheat, Winter: 10
[13]; 125 g ai/ha
  Plant response rating, Wheat, Winter: 70

## FC(F)(F)c1cnc(Oc2c(Br)cccc2Oc2ncc(Cl)cn2)nc1 [Compound 24]
[1]; 16 g ai/ha
  Plant response rating, Bluegrass: 15
[1]; 31 g ai/ha
  Plant response rating, Bluegrass: 20
[1]; 62 g ai/ha
  Plant response rating, Bluegrass: 25
[1]; 125 g ai/ha
  Plant response rating, Bluegrass: 35
[2]; 16 g ai/ha
  Plant response rating, Canarygrass: 25
[2]; 31 g ai/ha
  Plant response rating, Canarygrass: 30
[2]; 62 g ai/ha
  Plant response rating, Canarygrass: 35
[2]; 125 g ai/ha
  Plant response rating, Canarygrass: 45
[3]; 16 g ai/ha
  Plant response rating, Chamomile: 55
[3]; 31 g ai/ha
  Plant response rating, Chamomile: 100
[3]; 62 g ai/ha
  Plant response rating, Chamomile: 100
[3]; 125 g ai/ha
  Plant response rating, Chamomile: 100
[4]; 16 g ai/ha
  Plant response rating, Chickweed: 10
[4]; 31 g ai/ha
  Plant response rating, Chickweed: 100
[4]; 62 g ai/ha
  Plant response rating, Chickweed: 100
[4]; 125 g ai/ha
  Plant response rating, Chickweed: 100
[5]; 16 g ai/ha
  Plant response rating, Deadnettle: 30
[5]; 31 g ai/ha
  Plant response rating, Deadnettle: 60
[5]; 62 g ai/ha
  Plant response rating, Deadnettle: 100
[5]; 125 g ai/ha
  Plant response rating, Deadnettle: 100
[6]; 16 g ai/ha
  Plant response rating, Bromegrass, Downy: 20
[6]; 31 g ai/ha
  Plant response rating, Bromegrass, Downy: 35
[6]; 62 g ai/ha
  Plant response rating, Bromegrass, Downy: 35
[6]; 125 g ai/ha
  Plant response rating, Bromegrass, Downy: 45
[7]; 16 g ai/ha
  Plant response rating, Field Poppy: 75
[7]; 31 g ai/ha
  Plant response rating, Field Poppy: 100
[7]; 62 g ai/ha
  Plant response rating, Field Poppy: 100
[7]; 125 g ai/ha
  Plant response rating, Field Poppy: 100
Kochia (Kochia scoparia); 16 g ai/ha
  Plant response rating, Kochia: 0
Kochia (Kochia scoparia); 31 g ai/ha
  Plant response rating, Kochia: 25
Kochia (Kochia scoparia); 62 g ai/ha
  Plant response rating, Kochia: 60
Kochia (Kochia scoparia); 125 g ai/ha
  Plant response rating, Kochia: 100
[8]; 16 g ai/ha
  Plant response rating, Lambsquarters: 100
[8]; 31 g ai/ha
  Plant response rating, Lambsquarters: 100
[8]; 62 g ai/ha
  Plant response rating, Lambsquarters: 100
[8]; 125 g ai/ha
  Plant response rating, Lambsquarters: 100
[9]; 16 g ai/ha
  Plant response rating, Oilseed Rape: 0
[9]; 31 g ai/ha
  Plant response rating, Oilseed Rape: 15
[9]; 62 g ai/ha
  Plant response rating, Oilseed Rape: 20
[9]; 125 g ai/ha
  Plant response rating, Oilseed Rape: 80
[10]; 16 g ai/ha
  Plant response rating, Pigweed: 60
[10]; 31 g ai/ha
  Plant response rating, Pigweed: 100
[10]; 62 g ai/ha
  Plant response rating, Pigweed: 100
[10]; 125 g ai/ha
  Plant response rating, Pigweed: 100
[11]; 16 g ai/ha
  Plant response rating, Barley, Spring: 0
[11]; 31 g ai/ha
  Plant response rating, Barley, Spring: 20
[11]; 62 g ai/ha
  Plant response rating, Barley, Spring: 30
[11]; 125 g ai/ha
  Plant response rating, Barley, Spring: 85
[12]; 16 g ai/ha
  Plant response rating, Buckwheat, Wild: 10
[12]; 62 g ai/ha
  Plant response rating, Buckwheat, Wild: 20
[12]; 125 g ai/ha
  Plant response rating, Buckwheat, Wild: 100
[13]; 16 g ai/ha
  Plant response rating, Wheat, Winter: 0
[13]; 31 g ai/ha
  Plant response rating, Wheat, Winter: 0
[13]; 62 g ai/ha
  Plant response rating, Wheat, Winter: 0
[13]; 125 g ai/ha
  Plant response rating, Wheat, Winter: 10
